Source: patent US20090192071A1, “USE OF PHOTODYNAMIC THERAPY TO ENHANCE TREATMENT WITH IMMUNO-MODULATING AGENTS” (DUSA PHARMACEUTICALS, INC., priority 2004, published 2009)

Key:
[1] = Combination therapy (ALA photodynamic therapy plus alefacept) in patients with psoriasis; format: in vivo, patient; details: for alleviation of symptoms: then reduced course of alefacept
Basal Cell Carcinoma = experiment: Combination therapy (ALA photodynamic therapy plus imiquimod) in a patient with Basal Cell Carcinoma; format: in vivo; details: Example 3: ALA topical cream, red light several hours later, then a course of imiquimod
Protocol: A patient with a Basal Cell Carcinoma is administered ALA in the form of a topical cream, which is applied to the affected areas. Several hours after administration of the ALA, the patient is exposed to an activating red light. Subsequently, the patient is administered a course of imiquimod therapy.

[2] = Combination therapy (ALA photodynamic therapy plus imiquimod) in a patient with warts; format: in vivo; details: Example 7: ALA topical cream, white light several hours later, then reduced course of imiquimod
Protocol: A patient with warts is administered ALA in the form of a topical cream, which is applied to the affected area. Several hours after administration of the ALA, the patient is exposed to white light. Subsequently, the patient is administered a reduced course of imiquimod therapy.

[3] = cited from earlier work

In the case of NCC(=O)CCC(=O)O [ALA, 5-Amino-4-oxopentanoic acid], the improvement of psoriasis ([1]; Example 1: several patients, topical ALA, then Intense Pulsed Light (IPL), then alefacept as normally done) is reported as “almost immediate improvements”, the “return of psoriatic symptoms after cessation of alefacept therapy” value ([1]; Example 2: topical ALA and blue light after a completed alefacept treatment cycle) is reported as “less return of their psoriatic symptoms” and the alleviation of symptoms ([1]; Example 4: ALA topical cream, activating light several hours later) is reported as “alleviation of symptoms soon after receiving the treatment”. The alleviation of symptoms ([1]; Example 5: ALA i.v. injection, 5 J/cm^2 of 417 nm blue light after one to three hours) was “alleviation of symptoms soon after receiving the treatment”, the alleviation of symptoms ([1]; Example 6: oral ALA, 10 J/cm^2 of 417 nm blue light after one to three hours) was “alleviation of symptoms soon after receiving the treatment” and the “resolution of the cancerous lesion” value (Basal Cell Carcinoma) was “rapid and complete resolution of the cancerous lesion”. The alleviation of symptoms [2] was “alleviation of symptoms soon after receiving the treatment” and the solubility in water [3] was “water soluble”.
